Reference: the CATMoS acute toxicity set (Mansouri et al. 2021)
Where a SMILES comes first, the peptide text is derived from it.

Experiment: GHS categories as the set defines them, by LD50: 1 up to 5, 2 up to 50, 3 up to 300, 4 up to 2000, 5 above 2000 mg/kg
Settings: rat; in vivo; po

| SMILES | GHS category |
| --- | --- |
| Brc1c(Br)c(Br)c(OCCOc2c(Br)c(Br)c(Br)c(Br)c2Br)c(Br)c1Br | 5 |
| O=C(O)c1ccc(C(=O)O)o1 | 5 |
| O=c1[nH]c(=O)[nH]c(=O)[nH]1 | 5 |
| NP(N)(=O)Oc1ccccc1 | 4 |
| CC1(C)CC2(CC(C)(C)c3ccc(O)cc32)c2cc(O)ccc21 | 5 |
| CCOC(=O)C1(C)OC(=O)N(c2cc(Cl)cc(Cl)c2)C1=O (stereo unspecified) | 5 |
| CCCCCCOc1ccc(-c2ccc(C#N)cc2)cc1 | 5 |
| CCOc1nc(F)cc2nc(S(=O)(=O)Nc3c(Cl)cccc3C(=O)OC)nn12 | 5 |
| COc1cc2nc(N3CCC(CN(C)C(=O)c4ccco4)CC3)nc(N)c2cc1OC | 4 |
| CN(CC1(C)CCCO1)S(=O)(=O)c1ccc(Cl)c(S(N)(=O)=O)c1 (stereo unspecified) | 5 |
| CCC(C)(C)NC(=O)c1cnc2cccc(C)n2c1=O | 3 |
| C=C(C)C(=O)OCCNC(C)(C)C | 4 |
| COc1cc2nc(N3CCN(C(=O)C4COc5ccccc5O4)CC3)nc(N)c2cc1OC (stereo unspecified) | 5 |
| Clc1cc(Cl)c2oc(C3(Cn4cncn4)OCCO3)cc2c1 | 4 |
| COC(=O)C(F)(F)C(F)(F)C(F)(F)OC(F)=C(F)F | 3 |
| CCC(C(=O)NC(N)=O)c1ccccc1 (stereo unspecified) | 5 |
| Nc1ccc(F)cc1-c1ccc(Cl)c(Cl)c1 | 5 |
| CCC(C)CCC(C)(O)CC (stereo unspecified) | 5 |
| CNC(=O)c1sc(-c2ccccc2OC)nc1C | 5 |
| CC(=O)OC1CCC(NCc2ccccc2N)CC1 (stereo unspecified) | 5 |
| CCCCCCCCCC(C)C(OC)OC (stereo unspecified) | 5 |
| CC(=O)Nc1ccc(NC(=O)c2cc3ccccc3cc2O)cc1 | 5 |
| CC(CO)C1CCCCCCCCCCC1 (stereo unspecified) | 5 |
| CCCCCCC(C)(C)c1cc(O)c2c(c1)OC(C)(C)[C@@H]1CCC(=O)C[C@@H]21 | 4 |

| SMILES | GHS category |
| --- | --- |
| C=C1CC[C@H](O)C/C1=C/C=C1\CCC[C@]2(C)[C@@H]([C@H](C)CC[C@@H](O)C(C)(C)O)CC[C@@H]12 | 2 |
| CC1(C)S[C@@H]2[C@H](NC(=O)C(C(=O)O)c3ccccc3)C(=O)N2[C@H]1C(=O)O (stereo partly specified) | 5 |
| CCNC(=O)NCc1cccc(Cl)c1 | 5 |
| FC(F)(F)N1C(F)(F)C(F)(F)OC(F)(F)C1(F)F | 5 |
| O=C(Cn1cnnn1)N[C@@H]1C(=O)N2C(C(=O)O)=C(CSc3nncs3)CS[C@H]12 | 5 |
| CCCCCCC(O)CO (stereo unspecified) | 5 |
| COC(=O)Cc1c(C(=O)OC)sc(N)c1C#N | 5 |
| CC1CC(OC(=O)COc2ccc(I)cc2)CC(C)(C)C1 (stereo unspecified) | 5 |
| CCCc1c(Cc2ccc(-c3ccccc3-c3nn[nH]n3)cc2)c(=S)nc2nc[nH]n12 | 4 |
| Nc1nc2c(s1)CC(N)CC2 (stereo unspecified) | 4 |
| CCOCCC(C)CCC=C(C)C (stereo unspecified) | 5 |
| COc1cc(C(=O)OCCOCCN2CCN(C(c3ccccc3)c3ccc(Cl)cc3)CC2)cc(OC)c1OC (stereo unspecified) | 5 |
| Cc1nc(N)sc1C(=O)N(C(C)C)C(C)C | 4 |
| Cc1cc2nc3c(=O)[nH]c(=O)nc-3n(C[C@H](O)[C@H](O)[C@H](O)CO)c2cc1C | 5 |
| COc1cc(OC)c(NC(=O)c2cc3ccccc3cc2O)cc1Cl | 5 |
| Cc1cc(C)c(Nc2ccc(Nc3c(C)cc(C)cc3C)c3c2C(=O)c2ccccc2C3=O)c(C)c1 | 5 |
| CCCCCCCCCCCCCCOC(=O)CCCCCCCCCCCCC | 5 |
| COc1ccc2c(c1)CCN(c1ccccc1)C2c1ccc(OCCN2CCCC2)cc1 (stereo unspecified) | 4 |
| C=CC(C)(CCC=C(C)C)OC=O (stereo unspecified) | 5 |
| CCOC(=O)C(=O)Nc1cc(Cl)ncn1 | 4 |
| CCCCCCCCCCOC(C)=O | 5 |
| Cc1c(C2=C(O)CC(C)(C)CC2=O)c2c(n1-c1ccccc1)CC(C)(C)CC2=O | 5 |
| N#CC1(N)CC1 | 4 |
| CCC(C)=NO[Si](ON=C(C)CC)(ON=C(C)CC)c1ccccc1 | 5 |

| SMILES | GHS category |
| --- | --- |
| Nc1nc(N)nc(NC(=O)NC(=O)c2ccc(Cl)cc2)n1 | 5 |
| C[C@H]1CO[C@@](Cn2ccnc2)(c2cc3cc(Cl)cc(Cl)c3o2)O1 | 4 |
| CC(=O)Nc1ncc([N+](=O)[O-])s1 | 4 |
| Cc1ccc(S(=O)(=O)NC(=O)NN2CCCCCC2)cc1 | 5 |
| O=C(O)c1cc(C(=O)O)cc([N+](=O)[O-])c1 | 5 |
| Brc1cc(Oc2cc(Br)c(Br)c(Br)c2Br)c(Br)c(Br)c1Br | 5 |
| OCc1cncs1 | 5 |
| COc1ccc2c(c1)CCN(c1ccccc1)C2c1ccc(O)cc1 (stereo unspecified) | 4 |
| NC(=O)c1ccc[n+]([C@@H]2O[C@H](COP(=O)([O-])OP(=O)(O)OC[C@H]3O[C@@H](n4cnc5c(N)ncnc54)[C@H](O)[C@@H]3O)[C@@H](O)[C@H]2O)c1 | 5 |
| C1CCCCCC2=C(CCCC1)CCCO2 | 5 |
| CCc1ccc(OCC=C(C)CCC2OC2(C)C)cc1 (stereo unspecified) | 5 |
| NC(=O)NNC(N)=O | 5 |
| O=C(CCl)OC(=O)CCl | 3 |
| O=S(=O)(O)Cc1ccccc1 | 4 |
| C/C=C/C=C/CCCCCCCO | 5 |
| CN1C(C(=O)Nc2ccccn2)=C(O)c2sc(O)cc2S1(=O)=O | 3 |
| CCCC(=O)O[C@]1(C(=O)CCl)[C@@H](C)C[C@H]2[C@@H]3CCC4=CC(=O)C=C[C@]4(C)[C@@]3(F)C(=O)C[C@@]21C | 5 |
| CCCC1OC(Cn2cncn2)(c2cc3ccccc3o2)OCC1(C)C (stereo unspecified) | 4 |
| COc1ccc2c(c1)CCN(c1ccccc1)C2c1cccc(C(F)(F)F)c1 (stereo unspecified) | 4 |
| CNC(=O)C(=NNc1ccccc1Cl)C(C)=O | 5 |
| N#Cc1ccc(N(c2ccc(C#N)cc2)c2ccc3c(c2)C(=O)N(Cc2cccnc2)C3=O)cc1 | 5 |
| CC(=O)OC(C)Cc1ccccc1 (stereo unspecified) | 5 |
| COc1cc(C)c(/C=C/C(C)=C/C=C/C(C)=C/C(=O)O)c(C)c1C | 5 |
| CC(=O)Nc1ccc(C2=NN(C(C)=O)C(C)Cc3cc4c(cc32)OCO4)cc1 (stereo unspecified) | 4 |

| SMILES | GHS category |
| --- | --- |
| O=S(O)CO | 5 |
| CC(=O)OC[C@H]1O[C@@](COC(C)=O)(O[C@H]2O[C@H](COC(C)=O)[C@@H](OC(C)=O)[C@H](OC(C)=O)[C@H]2OC(C)=O)[C@@H](OC(C)=O)[C@@H]1OC(C)=O | 5 |
| N#CCN(CC#N)CCN(CC#N)CC#N | 5 |
| CCCCCCCCCC | 5 |
| CCOC(=O)CCn1c(=N)oc2ccccc21 | 4 |
| O=C(CCCN1CCC2(CC1)C(=O)NCN2c1ccccc1)c1ccc(F)cc1 | 4 |
| Clc1ccc(CNC2=NCCS2)cc1 | 3 |
| CC(C)CC(=O)OCc1ccccc1 | 5 |
| O=S(=O)(O)OC1C(OS(=O)(=O)O)C(OS(=O)(=O)O)C(OS(=O)(=O)O)C(OS(=O)(=O)O)C1OS(=O)(=O)O (stereo unspecified) | 5 |
| C=COCCCN | 4 |
| CCCCCCOC(=O)CC | 5 |
| COc1ccc(CCC(C)=O)cc1 | 5 |
| C[C@@H](O)[C@H]1C(=O)N2C(C(=O)O)=C(S[C@@H]3CN[C@H](C(=O)N(C)C)C3)[C@H](C)[C@H]12 | 5 |
| CC(C)[N+](C)(CCC(C(N)=O)(c1ccccc1)c1ccccc1)C(C)C | 5 |
| CCCC(=O)N(C)C(=O)Oc1cccc2c1OCO2 | 4 |
| CCC=CCC=CCC=CCC=CCCCCCCC(=O)OCC | 5 |
| COC(=O)[C@]1(C)CCC[C@@]2(C)[C@H]1CC=C1C=C(C(C)C)CC[C@@H]12 | 5 |
| O=C(O)CCCCCCCCCCCCCCCCC(=O)O | 5 |
| O=C(Nc1ccc(NC(=O)c2cc3ccccc3c(N=Nc3cc(Cl)ccc3Cl)c2O)c(Cl)c1)c1cc2ccccc2c(N=Nc2cc(Cl)ccc2Cl)c1O | 5 |
| Nc1nc2cc([N+](=O)[O-])ccc2o1 | 4 |
| CCOc1ccc(C(=O)NCc2ccc(OCCNC)cc2)cc1OCC | 5 |
| Cc1c(OCC(F)(F)F)ccnc1CS(=O)c1nc2ccccc2[nH]1 (stereo unspecified) | 5 |
| CNC(=O)C(=NNc1ccccc1[N+](=O)[O-])C(C)=O | 5 |
| CCCCCCCCCCCCCCOC(=O)OOC(=O)OCCCCCCCCCCCCCC | 5 |

| SMILES | GHS category |
| --- | --- |
| Cc1cc(S(=O)(=O)O)c(/N=N/c2c(O)c(C(=O)O)cc3ccccc23)cc1Cl | 5 |
| CNC(=O)C(=NNc1ccc(Cl)cc1)C(C)=O | 5 |
| CCCCOC(=O)CC(O)C(=O)OCCCC (stereo unspecified) | 5 |
| CCCOc1nn(-c2cccc(C(F)(F)F)c2)c2ncccc12 | 4 |
| CCCCCCCCCCCCCCCCOC(=O)Oc1c(Cl)cc(C(=O)OCC)cc1Cl | 5 |
| O=[N+]([O-])c1ccc2c(c1)COP(=S)(N1CCCCC1)O2 (stereo unspecified) | 3 |
| CC(=O)S[C@H]1CC(=O)C=C2C[C@@H](SC(C)=O)[C@@H]3[C@H](CC[C@@]4(C)[C@H]3CC[C@]4(C)O)[C@]21C | 5 |
| CCCCCCCCCCCCO[PH](=O)OCCCCCCCCCCCC | 5 |
| CCO[C@@H]1O[C@H](C(COCc2ccccc2)OCc2ccccc2)[C@H](OCc2ccccc2)[C@H]1O (stereo partly specified) | 5 |
| CCCCCCCCCCCCCCCCCC(=O)NCCCCC(NC(=O)CCC(NC(=O)C(C)NC(=O)C(C)OC1C(O)C(CO)OC(O)C1NC(C)=O)C(N)=O)C(=O)O (stereo unspecified) | 4 |
| C=C(C)CCC[C@H](C)CCOC(=O)Cc1ccccc1 | 5 |
| CCCCCCCCCCCCCO[PH](=O)OCCCCCCCCCCCCC | 5 |
| CCN(C)CCC(C#N)(CC=C(C)C)c1cccc2ccccc12 (stereo unspecified) | 4 |
| CNC(=O)C(=NNc1cc([N+](=O)[O-])ccc1OC)C(C)=O | 5 |
| NCC(=O)N[C@@H](CCC(N)=O)C(=O)O (H-Gly-Gln-OH) | 5 |
| O=C1C=CC(=O)N1c1ccc(Cc2ccc(N3C(=O)C=CC3=O)cc2)cc1 | 5 |
| CC(C)CCCCCCCOC(=O)CCCCCCCC(=O)OCCCCCCCC(C)C | 5 |
| Cc1cccc(C)c1N(CCCC(=O)O)C(=O)c1ccccc1Cl | 5 |
| CC(C)OC(=O)C(C)N(C(=O)c1ccccc1)c1ccc(F)c(Cl)c1 (stereo unspecified) | 5 |
| CCC1COC(Cn2cncn2)(c2cc3cc(Cl)cc(Cl)c3o2)O1 (stereo unspecified) | 4 |
